# Columns and labels:
# [1] = In vitro % Fu, mouse plasma; assay type: in vitro ADME; conditions: read-out: In Vitro % Fu (Mo Plasma)
# MV4-11 = experiment: Cancer cell growth inhibition, Sulforhodamine B; assay type: cell-based; conditions: Homo sapiens, MV4-11, 72 h, MV4-11 (hematological)
# In short: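 Values derive from single-point measurements at each of six concentrations, made from 10-fold DMSO stock dilutions (10 mM down to 0.1 uM) and dosed at 0.1% final DMSO. Exposure lasted 72 hr; cell growth was read by SRB staining and fitted to GI50, TGI, LC50 and related parameters.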
compound,measurement,setting,value
"CC(C)(O)c1cc(-c2csc(-c3ccc(C(=O)N4CCC(O)CC4)cc3Cl)c2)ccn1 [Compound 1, (3-chloro-4-(4-(2-(2-hydroxypropan-2-yl)pyridin-4-yl)thiophen-2-yl)phenyl)(4-hydroxypiperidin-1-yl)methanone]",fraction unbound,[1],0.007
same,IC50,MV4-11; Non-Responder Cell Lines with IC50 >10 uM or Not Determined,> 10 µM
same,IC50,MV4-11; Responder Cell Lines,< 10 µM

# From patent publication US20220356170A1, “SREBP INHIBITOR COMPRISING A THIOPHENE CENTRAL RING” (Capulus Therapeutics, LLC, priority 2019, published 2022)
